pKi: −log10 of the molar value.
Molecular target: T1, Adenosine receptor A3 (Homo sapiens, UniProt P0DMS8)
T1 sequence (P0DMS8 whole entry): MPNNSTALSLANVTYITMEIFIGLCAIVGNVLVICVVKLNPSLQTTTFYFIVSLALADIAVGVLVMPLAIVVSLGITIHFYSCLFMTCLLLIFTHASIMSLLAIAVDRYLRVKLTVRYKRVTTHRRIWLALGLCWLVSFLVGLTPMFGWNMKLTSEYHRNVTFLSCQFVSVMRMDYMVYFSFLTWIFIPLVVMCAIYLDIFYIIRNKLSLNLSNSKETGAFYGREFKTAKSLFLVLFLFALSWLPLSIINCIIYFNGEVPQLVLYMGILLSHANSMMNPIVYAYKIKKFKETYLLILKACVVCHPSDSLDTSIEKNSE
Test: Binding Assay

- pKi: 7.70
SMILES: COc1ccccc1CNc1nc(Cl)nc2c1ncn2[C@@H]1SCC(O)[C@@H]1O (stereo partly specified) [US9018371, 7]

From BindingDB's records for patent US9018371 (Fm Therapeutics, 2015)
